The source of these data is publication PMC12197871 (Protein Science : A Publication of the Protein Society, 2025).

In assay [1] the target is T1, GsLDH (Geobacillus stearothermophilus, UniProt P00344). The assay is described as follows: Isothermal titration calorimetry of cofactor binding to GsLDH. Conditions: for Kd: K d; for Kd / K B × 10^5 / TΔS B / ΔG B / ΔH B / binding stoichiometry n: presence of FBP; for Kd / K B × 10^5 / TΔS B / ΔG B / ΔH B: 30°C; for enthalpy change on titration of the enzyme: absence of FBP. On the technique in general: In ITC the heat of successive injections is recorded.
T1 sequence (P00344 whole entry): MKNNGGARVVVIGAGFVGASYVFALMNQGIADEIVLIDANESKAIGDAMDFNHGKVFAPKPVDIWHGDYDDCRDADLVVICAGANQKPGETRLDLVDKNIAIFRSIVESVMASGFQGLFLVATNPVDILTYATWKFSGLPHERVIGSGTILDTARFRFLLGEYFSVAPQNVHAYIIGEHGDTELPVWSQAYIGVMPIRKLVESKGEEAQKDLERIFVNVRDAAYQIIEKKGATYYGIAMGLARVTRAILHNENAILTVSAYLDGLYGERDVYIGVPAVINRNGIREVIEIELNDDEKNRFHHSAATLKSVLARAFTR

Assay [2] addresses T1, GsLDH. The experiment in a line: GsLDH kinetic studies. The class given is biochemical. Conditions: WT GsLDH.

Entries after “also recorded” stand apart in the source; their conditions may differ.

For `NC(=O)c1ccc[n+]([C@@H]2O[C@H](COP(=O)([O-])OP(=O)(O)OC[C@H]3O[C@@H](n4cnc5c(N)ncnc54)[C@H](O)[C@@H]3O)[C@@H](O)[C@H]2O)c1` [NAD^+, oxidized nicotinamide adenine dinucleotide], at GsLDH [1] (WT with pyruvate), the Kd (as a rule, the constant that tells how readily two partners part at equilibrium) is 1.6 µM; the “K B × 10^5” value is 6 ± 2 10^5 M^−1; the “TΔS B” value is -37.0 kcal/mol; the “ΔG B” value was -8.0 kcal/mol. Further, on GsLDH [1] (WT with pyruvate), the “ΔH B” value was -45 ± 2 kcal/mol. For the same molecule, at GsLDH [1] (WT), the Kd was found to be 3 µM, the “K B × 10^5” value was 3 ± 2 10^5 M^−1, the “TΔS B” value is -134.4 kcal/mol and the “ΔG B” value is -7.6 kcal/mol. Further, the “ΔH B” value at GsLDH [1] (WT) was -142 ± 20 kcal/mol. Also, at GsLDH [1], the “enthalpy change on titration of the enzyme” value is “did not result in significant enthalpy changes” and the binding stoichiometry n was about 1.

For the molecule `O=C(COP(=O)(O)O)[C@@H](O)[C@H](O)[C@H](O)COP(=O)(O)O` [FBP, fructose 1,6‐bisphosphate], on GsLDH [2], the “fold decrease of K m for pyruvate in the presence of FBP” value amounted to 5.6 fold and the “fold improvement of catalytic efficiency (k cat/K m) in the presence of FBP” value is on record as 3.3 fold.

Consider “reduced nicotinamide adenine dinucleotide [NADH]”, for which, at GsLDH [1] (WT), the “K B × 10^5” value is on record as 8 ± 2 10^5 M^−1, the “TΔS B” value was -50.8 kcal/mol, the “ΔG B” value is -8.2 kcal/mol and the “ΔH B” value was -59 ± 4 kcal/mol. On GsLDH [1], the “enthalpy change on titration of the enzyme” value is “did not result in significant enthalpy changes; also recorded: too low to be detected” and the binding stoichiometry n is on record as about 1.
